In ChEMBL document CHEMBL1150321:
Calls of active or inactive are those of the source. The rule behind the calls is not given here.

What was measured:
[1] = biological target: Baculoviral IAP repeat-containing protein 2 (Homo sapiens) (UniProt Q13490); test: Binding affinity to human BIR3 domain of cIAP1 by fluorescence polarization assay
[2] = biological target: Baculoviral IAP repeat-containing protein 2 (Homo sapiens) (UniProt Q13490); test: Binding affinity to human BIR3 domain of cIAP1 by photoaffinity labeling assay in presence of (S)-2-((2S,3R)-3-Amino-2-hydroxy-4-phenyl-butyrylamino)-4-methyl-pentanoic acid methyl ester
[3] = biological target: Baculoviral IAP repeat-containing protein 2 (Homo sapiens) (UniProt Q13490); test: Binding affinity to human BIR3 domain of cIAP1 at 150 uM after 30 mins by photoaffinity labeling assay in presence of (S)-2-((2S,3R)-3-Amino-2-hydroxy-4-phenyl-butyrylamino)-4-methyl-pentanoic acid methyl ester

Sequence of Baculoviral IAP repeat-containing protein 2 (Homo sapiens) (Q13490 whole entry, looked up, the tested form may be a part): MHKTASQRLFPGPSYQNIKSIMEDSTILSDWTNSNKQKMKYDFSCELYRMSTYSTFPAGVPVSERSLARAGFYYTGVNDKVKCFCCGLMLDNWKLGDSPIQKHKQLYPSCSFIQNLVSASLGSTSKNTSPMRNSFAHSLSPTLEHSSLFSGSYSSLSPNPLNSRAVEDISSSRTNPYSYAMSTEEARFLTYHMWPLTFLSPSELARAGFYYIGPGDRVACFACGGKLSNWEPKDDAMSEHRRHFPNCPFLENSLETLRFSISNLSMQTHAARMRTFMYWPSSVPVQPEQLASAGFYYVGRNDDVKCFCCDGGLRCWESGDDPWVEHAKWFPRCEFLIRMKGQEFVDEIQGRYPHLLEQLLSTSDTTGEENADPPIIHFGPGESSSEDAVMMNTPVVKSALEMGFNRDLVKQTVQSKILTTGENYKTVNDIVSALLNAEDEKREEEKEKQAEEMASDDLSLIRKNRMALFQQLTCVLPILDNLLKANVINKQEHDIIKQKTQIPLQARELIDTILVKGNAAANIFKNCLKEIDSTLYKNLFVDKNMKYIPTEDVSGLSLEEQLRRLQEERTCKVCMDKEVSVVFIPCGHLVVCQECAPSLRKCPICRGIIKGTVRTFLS

| Structure (SMILES) | Activity [1] | Activity [2] | Activity [3] |
| --- | --- | --- | --- |
| CC(C)C[C@H](NC(=O)[C@@H](O)[C@H](N)Cc1ccccc1)C(=O)OCCNS(=O)(=O)c1cccc2c(N(C)C)cccc12 | Active | Active |  |
| CC(C)C[C@H](NC(=O)[C@@H](O)[C@H](N)Cc1ccccc1)C(=O)OCCNS(=O)(=O)c1cccc2c(N=[N+]=[N-])cccc12 |  |  | Active |
